Reference: patent US6492384B1, “Imidazo (4,5-C) pyridine-4-one derivatives with factor XA inhibiting effect” (Merck Patent GmbH, priority 1998, dated 2002)

melting point [°C]	SMILES
149 to 150	Cc1nc(-c2ccc3ccc(Cn4c(C(C)C)nc5ccn(Cc6ccccc6-c6noc(C)n6)c(=O)c54)cc3c2)no1 [BC4, 2-isopropyl-3-[7-(5-methyl[1,2,4]oxadiazol-3-yl)naphth-2-ylmethyl]-5-[2-(5-methyl[1,2,4]oxadiazol-3-yl)benzyl]-3,5-dihydroimidazo[4,5-c]pyridin-4-one]
172 to 173	Cc1nc(-c2ccc(Cn3ccc4nc(C(C)C)n(Cc5ccc6ccc(-c7noc(C)n7)cc6c5)c4c3=O)cc2)no1 [BC3, 2-isopropyl-3-[7-(5-methyl[1,2,4]oxadiazol-3-yl)naphth-2-ylmethyl]-5-[4-(5-methyl[1,2,4]oxadiazol-3-yl)benzyl]-3,5-dihydroimidazo[4,5-c]pyridin-4-one]
112 to 113	Cc1nc(-c2ccc3ccc(Cn4c(C(C)C)nc5ccn(Cc6ccccc6)c(=O)c54)cc3c2)no1 [BC5, 2-isopropyl-3-[7-(5-methyl[1,2,4]oxadiazol-3-yl)naphth-2-ylmethyl]-5-benzyl-5H-imidazo[4,5-c]pyridin-4-one]
201 to 202	Cc1nc(-c2ccc3ccc(Cn4ccc5nc(C(C)C)n(Cc6ccc7ccc(-c8noc(C)n8)cc7c6)c5c4=O)cc3c2)no1 [BC2, 2-isopropyl-3-[7-(5-methyl[1,2,4]oxadiazol-3-yl)naphth-2-ylmethyl]-5-[7-(5-methyl[1,2,4]oxadiazol-3-yl)naphth-2-ylmethyl]-3,5-dihydroimidazo[4,5-c]pyridin-4-one]
